Inhibition data for 20 compounds are collected here from US12637471B2, “Heterocyclic compounds, compositions, methods of preparation and uses thereof” (Organon R&D Finland Ltd, priority 2021, dated 2026).

Common to all, as to assay type: biochemical
Test [1] deals with T1, 17β-Hydroxysteroid Dehydrogenase Type 2 Enzyme (17β-HSD2) (Homo sapiens, UniProt P37059).
T1 construct: made in house; host or cells: Sf-9 insect cells (baculovirus)
T1 sequence (P37059 1-387): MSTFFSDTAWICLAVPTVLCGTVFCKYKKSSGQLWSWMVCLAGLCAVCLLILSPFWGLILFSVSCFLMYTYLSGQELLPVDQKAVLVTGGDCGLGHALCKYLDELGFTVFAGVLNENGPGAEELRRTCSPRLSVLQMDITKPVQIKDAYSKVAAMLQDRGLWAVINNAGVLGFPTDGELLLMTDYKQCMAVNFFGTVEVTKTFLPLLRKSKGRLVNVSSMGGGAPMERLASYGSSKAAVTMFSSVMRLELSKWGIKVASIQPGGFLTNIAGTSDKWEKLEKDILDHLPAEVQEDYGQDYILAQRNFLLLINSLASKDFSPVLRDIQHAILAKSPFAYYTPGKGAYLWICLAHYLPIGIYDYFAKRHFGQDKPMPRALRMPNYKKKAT
In words: Inhibition of the 17β-hydroxysteroid dehydrogenase type 2 enzyme, 3H-testosterone conversion. To be noted: inhibitor at 10 μM. A digest of the protocol: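 Single-point screen at 10 μM inhibitor, 1% DMSO: Sf-9-expressed human enzyme (105 nM), NAD 1 mM, ³H-labelled testosterone 56.25 nM, pH 8.5 phosphate/EDTA buffer, 30 min, room temperature. After TCA quench, substrate and product radioactivity quantified by UPLC with scintillation detection; inhibition percent from conversion.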

Test [2] addresses T2, Recombinant human AKR1C3 (17β-HSD5) protein (Homo sapiens, UniProt P42330).
T2 construct: made in house; host or cells: E. coli
T2 sequence (P42330 1-323): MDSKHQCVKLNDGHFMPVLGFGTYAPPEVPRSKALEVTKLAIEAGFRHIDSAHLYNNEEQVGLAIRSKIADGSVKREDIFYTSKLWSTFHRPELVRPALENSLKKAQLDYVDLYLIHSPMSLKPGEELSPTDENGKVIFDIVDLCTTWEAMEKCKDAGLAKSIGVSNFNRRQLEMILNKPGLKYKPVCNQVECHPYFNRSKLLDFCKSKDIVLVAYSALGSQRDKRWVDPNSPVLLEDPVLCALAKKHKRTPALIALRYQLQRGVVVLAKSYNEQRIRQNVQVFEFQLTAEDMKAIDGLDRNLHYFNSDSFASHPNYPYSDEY
In words: Inhibition of AKR1C3 (17β-hydroxysteroid dehydrogenase type 5) enzyme, fluorescence assay. To be noted: inhibitor at 500 nM. A digest of the protocol:
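Percent inhibition at 500 nM compound, derived from substrate conversion; product alcohol measured by fluorescence (ex 420, em 510 nm) against a 1 μM–10 nM standard curve. Reaction: 27 nM recombinant AKR1C3, 1 μM ketone substrate, 1 mM NADPH, phosphate/EDTA buffer pH 7.4, 1% DMSO, RT for 60–120 min.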

The target in test [3] is T3, Recombinant human aldo-keto reductase family 1 member C2 (AKR1C2) protein (Homo sapiens, UniProt P52895).
T3 construct: made in house; host or cells: Sf-9 insect cells (baculovirus)
T3 sequence (P52895 1-323): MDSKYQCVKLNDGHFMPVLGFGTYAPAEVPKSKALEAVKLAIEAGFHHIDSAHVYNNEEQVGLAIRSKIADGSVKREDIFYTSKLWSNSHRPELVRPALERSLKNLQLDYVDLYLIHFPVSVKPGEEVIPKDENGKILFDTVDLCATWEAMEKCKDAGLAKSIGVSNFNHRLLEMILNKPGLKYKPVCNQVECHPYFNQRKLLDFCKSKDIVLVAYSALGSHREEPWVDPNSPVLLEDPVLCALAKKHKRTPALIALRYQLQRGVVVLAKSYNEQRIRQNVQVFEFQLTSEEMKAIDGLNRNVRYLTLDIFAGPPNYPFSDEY
As to the kind of experiment: Inhibition of the aldo-keto reductase family 1 member C2, 3H-dihydrotestosterone conversion. To be noted: inhibitor at 10 μM. A digest of the protocol:
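Single-point screen at 10 μM inhibitor, 1% DMSO: [3H]DHT (6.25 nM) reduction to 3α-diol by baculovirus-made AKR1C2 (13.6 nM), pH 7.4 phosphate buffer, 1 mM NADPH, 37 °C for 45 min. Radio-UPLC quantified product versus substrate to give percent inhibition.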

By inhibition is commonly meant the drop in the measured response relative to a control, in per cent. In the case of `CCOC1CCN(C(=O)N2CCC(=C(C#N)c3cccc4[nH]ncc34)CC2)CC1` [Compound 92, 2-(1-(4-ethoxypiperidine-1-carbonyl)piperidin-4-ylidene)-2-(1H-indazol-4-yl)acetonitrile], the inhibition at 10 µM turned out to be 30% in test [1] and 6% in test [3]. In test [2], the inhibition at 0.5 µM turned out to be 96%.
In the case of `CC(=O)n1ncc2c(C(C#N)=C3CCN(C(=O)N4CCc5nocc5C4)CC3)cccc21` [Compound 93, 2-(1-acetyl-1H-indazol-4-yl)-2-(1-(4,5,6,7-tetrahydroisoxazolo[4,3-c]pyridine-5-carbonyl)piperidin-4-ylidene)acetonitrile], the inhibition at 10 µM in test [1] was 23%; in test [3], 11%. Further, the inhibition at 0.5 µM in test [2] is 98%.
The corresponding values for `N#CC(=C1CCN(C(=O)N2CCC(O)CC2)CC1)c1n[nH]c2ccc(F)cc12` [Compound 94, 2-(5-fluoro-1H-indazol-3-yl)-2-(1-(4-hydroxypiperidine-1-carbonyl)piperidin-4-ylidene)acetonitrile] are 8%, 7% and 97%.
The corresponding values for `N#CC(=C1CCN(C(=O)N2CCC(CCCO)CC2)CC1)c1cccc(Cl)c1` [Compound 95, 2-(3-chlorophenyl)-2-(1-(4-(3-hydroxypropyl)piperidine-1-carbonyl)piperidin-4-ylidene)acetonitrile] are 25%, 22% and 94%.
The corresponding values for `CC(=O)N1CCN(C(=O)N2CCC(=C(C#N)c3cccc(Cl)c3)CC2)CC1` [Compound 96, 2-(1-(4-acetylpiperazine-1-carbonyl)piperidin-4-ylidene)-2-(3-chlorophenyl)acetonitrile] are 11%, 13% and 95%.
Consider `N#CC(=C1CCN(C(=O)N2CCC(CCO)CC2)CC1)c1ccc(F)cc1` [Compound 97, 2-(4-fluorophenyl)-2-(1-(4-(2-hydroxyethyl)piperidine-1-carbonyl)piperidin-4-ylidene)acetonitrile], for which the inhibition at 10 µM in test [1] and in test [3] was 9% in each case. Further, the inhibition at 0.5 µM in test [2] turned out to be 96%.
`N#CC(=C1CCN(C(=O)N2CCC(C(F)(F)F)CC2)CC1)c1ccc(F)cc1` [Compound 98, 2-(4-fluorophenyl)-2-(1-(4-(trifluoromethyl)piperidine-1-carbonyl)piperidin-4-ylidene)acetonitrile]: the inhibition at 10 µM in test [1] came to 18%; in test [3], 8%. For the same compound, the inhibition at 0.5 µM in test [2] worked out at 97%.
The corresponding values for `N#CC(=C1CCN(C(=O)N2CCC(S(N)(=O)=O)CC2)CC1)c1cccc(Cl)c1` [Compound 99, 1-(4-((3-chlorophenyl)(cyano)methylene)piperidine-1-carbonyl)piperidine-4-sulfonamide] are 18%, 16% and 96%.
The corresponding values for `N#CC(=C1CCN(C(=O)N2CCSCC2)CC1)c1ccc(F)cc1` [Compound 100, 2-(4-fluorophenyl)-2-(1-(thiomorpholine-4-carbonyl)piperidin-4-ylidene)acetonitrile] are -2%, 6% and 92%.
The corresponding values for `N#CC(=C1CCN(C(=O)N2CC3CCCC3C2)CC1)c1ccc(F)cc1` (stereo not drawn) [Compound 101, 2-(4-fluorophenyl)-2-(1-(octahydrocyclopenta[c]pyrrole-2-carbonyl)piperidin-4-ylidene)acetonitrile] are 14%, 11% and 90%.
In the case of `N#CC(=C1CCN(C(=O)N2CCc3ccccc32)CC1)c1ccc(F)cc1` [Compound 102, 2-(4-fluorophenyl)-2-(1-(indoline-1-carbonyl)piperidin-4-ylidene)acetonitrile], the inhibition at 10 µM was 12% in test [1] and 17% in test [3]. Also, the inhibition at 0.5 µM in test [2] is 99%.
The corresponding values for `CN(C(=O)N1CCC(=C(C#N)c2ccc(Cl)s2)CC1)C1COC1` [Compound 103, 4-((5-chlorothiophen-2-yl)(cyano)methylene)-N-methyl-N-(oxetan-3-yl)piperidine-1-carboxamide] are -4%, 19% and 95%.
In the case of `N#CC(=C1CCN(C(=O)N2CCCCC2)CC1)c1ccc(Cl)cc1` [Compound 104, 2-(4-chlorophenyl)-2-(1-(piperidine-1-carbonyl)piperidin-4-ylidene)acetonitrile], the values for the inhibition at 10 µM in test [1] and in test [3] were 0% and 5%, respectively. Also, in test [2], the inhibition at 0.5 µM turned out to be 96%.
`CCN(CC)C(=O)N1CCC(=C(C#N)c2ccc(Cl)cc2)CC1` [Compound 105, 4-((4-chlorophenyl)(cyano)methylene)-N,N-diethylpiperidine-1-carboxamide]: the inhibition at 10 µM in test [1] was 15%; in test [3], 10%. In test [2], the inhibition at 0.5 µM came to 100%.
The corresponding values for `COCC1CCN(C(=O)N2CCC(=C(C#N)c3ccc(F)cc3)CC2)CC1` [Compound 106, 2-(4-fluorophenyl)-2-(1-(4-(methoxymethyl)piperidine-1-carbonyl)piperidin-4-ylidene)acetonitrile] are 2%, 5% and 93%.
Regarding `N#CC(=C1CCN(C(=O)N2CCCC(O)CC2)CC1)c1ccc(F)cc1` (stereo not drawn) [Compound 107, 2-(4-fluorophenyl)-2-(1-(4-hydroxyazepane-1-carbonyl)piperidin-4-ylidene)acetonitrile], the inhibition at 10 µM is -1% in test [1] and 14% in test [3]. Besides, in test [2], the inhibition at 0.5 µM was found to be 92%.
As for `N#CC(=C1CCN(C(=O)N2CCc3sccc3C2)CC1)c1ccc(F)cc1` [Compound 108, 2-(4-fluorophenyl)-2-(1-(4,5,6,7-tetrahydrothieno[3,2-c]pyridine-5-carbonyl)piperidin-4-ylidene)acetonitrile], the inhibition at 10 µM in test [1] was -11%; in test [3], 21%. For the same compound, the inhibition at 0.5 µM in test [2] amounted to 98%.
Regarding `N#CC(=C1CCN(C(=O)N2CCc3cc(F)ccc32)CC1)c1ccc(F)cc1` [Compound 109, 2-(1-(5-fluoroindoline-1-carbonyl)piperidin-4-ylidene)-2-(4-fluorophenyl)acetonitrile], the inhibition at 10 µM in test [1] came to 26%; in test [3], 12%. Further, the inhibition at 0.5 µM in test [2] came out at 96%.
The corresponding values for `C[C@@H]1CCCCN1C(=O)N1CCC(=C(C#N)c2ccc(F)cc2)CC1` [Compound 110, (R)-2-(4-fluorophenyl)-2-(1-(2-methylpiperidine-1-carbonyl)piperidin-4-ylidene)acetonitrile] are 30%, 6% and 96%.
The corresponding values for `N#CC(=C1CCN(C(=O)N2C[C@@H]3CC[C@@H]2C3)CC1)c1ccc(F)cc1F` [Compound 111, 2-(1-((1R,4R)-2-azabicyclo[2.2.1]heptane-2-carbonyl)piperidin-4-ylidene)-2-(2,4-difluorophenyl)acetonitrile] are 8%, 13% and 95%.
